Test results reported in PubChem BioAssay AID256 (DTP/NCI, 2004).
“And” between values parts separate entries of the source, which are not always exact repeats. Equal values may be shown once. Toxic doses and inconclusive results are not listed. The calls were made as follows: active = survival T/C of 150% or more; inactive = T/C below 125% in these data.

Tested on: CD2F1 mice, L1210 leukemia ip, survival T/C
Test: NCI In Vivo Anticancer Drug Screen. Data for tumor model L1210 Leukemia (intraperitoneal) in CD2F1 (CDF1) mice
Settings: higher = longer survival
Procedure, shortened: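 In this screen, transplantable tumors were grown in mice given either the compound or its vehicle. Results were expressed as the treated measurement relative to the control measurement.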

[1] = endpoint: mean survival time, dose: 100.0 mg/kg/injection, schedule: Q04DX003 (ip), vehicle: saline with Tween-80
[2] = endpoint: mean survival time, dose: 200.0 mg/kg/injection, schedule: Q04DX003 (ip), vehicle: saline with Tween-80

Measured: T/C

Oc1ccccc1/C=N\N=C\c1ccccc1O
inactive: endpoint: mean survival time, dose: 100.0 mg/kg/injection, schedule: Q01DX001 (ip), vehicle: saline with Tween-80 97 % of control | endpoint: mean survival time, dose: 200.0 mg/kg/injection, schedule: Q01DX001 (ip), vehicle: saline with Tween-80 106 % of control | endpoint: mean survival time, dose: 400.0 mg/kg/injection, schedule: Q01DX001 (ip), vehicle: saline with Tween-80 100 % of control

Nc1ncnc2c1ncn2CCCl
inactive: endpoint: mean survival time, dose: 25.0 mg/kg/injection, schedule: Q01DX009 (ip), vehicle: saline with Tween-80 102 % of control | endpoint: mean survival time, dose: 25.0 mg/kg/injection, schedule: Q04DX003 (ip), vehicle: saline with Tween-80 103 % of control | endpoint: mean survival time, dose: 50.0 mg/kg/injection, schedule: Q01DX009 (ip), vehicle: saline with Tween-80 101 % of control | endpoint: mean survival time, dose: 50.0 mg/kg/injection, schedule: Q04DX003 (ip), vehicle: saline with Tween-80 96 % of control | [1] 97 % of control

COC(=O)c1ccc(C(=O)CC(=O)c2ccccc2)cc1
inactive: endpoint: median survival time, dose: 25.0 mg/kg/injection, schedule: Q04DX003 (ip), vehicle: saline with Tween-80 100 % of control | endpoint: median survival time, dose: 50.0 mg/kg/injection, schedule: Q04DX003 (ip), vehicle: saline with Tween-80 88 % of control | endpoint: median survival time, dose: 100.0 mg/kg/injection, schedule: Q04DX003 (ip), vehicle: saline with Tween-80 88 % of control | endpoint: median survival time, dose: 200.0 mg/kg/injection, schedule: Q04DX003 (ip), vehicle: saline with Tween-80 88 % of control

[C-]#[O+].[C-]#[O+].[C-]#[O+].[C-]#[O+].[CH3][Sn]([CH3])[CH3].[Co]
inactive: endpoint: mean survival time, dose: 0.02 mg/kg/injection, schedule: Q01DX009 (ip), vehicle: saline 100 % of control | endpoint: mean survival time, dose: 0.04 mg/kg/injection, schedule: Q01DX009 (ip), vehicle: saline 102 % of control | endpoint: mean survival time, dose: 0.09 mg/kg/injection, schedule: Q01DX009 (ip), vehicle: saline 100 % of control and 105 % of control | endpoint: mean survival time, dose: 0.39 mg/kg/injection, schedule: Q01DX009 (ip), vehicle: saline 86 % of control | endpoint: mean survival time, dose: 0.78 mg/kg/injection, schedule: Q01DX009 (ip), vehicle: saline 107 % of control

COc1c(C)ccc2c1CCN1C3=C(CCC21)CC1(CC3)OCCO1 (configuration not stated)
inactive: endpoint: mean survival time, dose: 100.0 mg/kg/injection, schedule: Q01DX009 (ip), vehicle: saline with Tween-80 95 % of control | [1] 92 % of control | endpoint: mean survival time, dose: 200.0 mg/kg/injection, schedule: Q01DX009 (ip), vehicle: saline with Tween-80 89 % of control | [2] 94 % of control | endpoint: mean survival time, dose: 400.0 mg/kg/injection, schedule: Q04DX003 (ip), vehicle: saline with Tween-80 94 % of control

[NH-]c1ccccc1C(=O)O.[NH-]c1ccccc1C(=O)O.[Ni+2]
inactive: [1] 93 % of control | [2] 107 % of control

CCCCCc1cccc(CC(=O)OCC)n1
inactive: endpoint: mean survival time, dose: 100.0 mg/kg/injection, schedule: Q04DX003 (ip), vehicle: saline 89 % of control | endpoint: mean survival time, dose: 200.0 mg/kg/injection, schedule: Q04DX003 (ip), vehicle: saline 94 % of control | endpoint: mean survival time, dose: 400.0 mg/kg/injection, schedule: Q04DX003 (ip), vehicle: saline 94 % of control

[NH-]C(CCC(N)=O)C(=O)O.[NH-]C(CCC(N)=O)C(=O)O.[Pt+2] (configuration not stated)
inactive: endpoint: mean survival time, dose: 3.13 mg/kg/injection, schedule: Q04DX003 (ip), vehicle: distilled water + Tween-80 103 % of control | endpoint: mean survival time, dose: 6.25 mg/kg/injection, schedule: Q04DX003 (ip), vehicle: distilled water + Tween-80 104 % of control | endpoint: mean survival time, dose: 12.5 mg/kg/injection, schedule: Q04DX003 (ip), vehicle: distilled water + Tween-80 110 % of control | endpoint: mean survival time, dose: 25.0 mg/kg/injection, schedule: Q04DX003 (ip), vehicle: distilled water + Tween-80 110 % of control | endpoint: mean survival time, dose: 50.0 mg/kg/injection, schedule: Q04DX003 (ip), vehicle: distilled water + Tween-80 95 % of control | endpoint: mean survival time, dose: 100.0 mg/kg/injection, schedule: Q04DX003 (ip), vehicle: distilled water + Tween-80 104 % of control | endpoint: mean survival time, dose: 200.0 mg/kg/injection, schedule: Q04DX003 (ip), vehicle: distilled water + Tween-80 98 % of control

COc1ccc2c(c1)CCN1C2CCN2CCCC21 (configuration not stated)
inactive: [1] 98 % of control | [2] 90 % of control

O=[N+]([O-])c1[nH]c(Br)nc1Br
inactive: [1] 95 % of control | [2] 100 % of control

COC(=O)c1ccccc1C(=O)c1n[nH]c2ccccc12
inactive: endpoint: mean survival time, dose: 25.0 mg/kg/injection, schedule: Q04DX002 (ip), vehicle: saline with Tween-80 103 % of control | endpoint: mean survival time, dose: 50.0 mg/kg/injection, schedule: Q04DX002 (ip), vehicle: saline with Tween-80 106 % of control | endpoint: mean survival time, dose: 100.0 mg/kg/injection, schedule: Q04DX002 (ip), vehicle: saline with Tween-80 106 % of control | endpoint: mean survival time, dose: 200.0 mg/kg/injection, schedule: Q04DX002 (ip), vehicle: saline with Tween-80 106 % of control
